Laboratory results taken from publication PMC4607650 (Bioorganic & medicinal chemistry letters, 2015).
Entries after “also recorded” stand apart in the source; their conditions may differ.

Key:
[1] = target: T1, P2Y14R-CHO cells (Homo sapiens, UniProt Q15391); experiment: confocal fluorescence microscopy labeling of P2Y14R-CHO cells by 11; assay type: cell-based
T1 sequence (Q15391 1-338): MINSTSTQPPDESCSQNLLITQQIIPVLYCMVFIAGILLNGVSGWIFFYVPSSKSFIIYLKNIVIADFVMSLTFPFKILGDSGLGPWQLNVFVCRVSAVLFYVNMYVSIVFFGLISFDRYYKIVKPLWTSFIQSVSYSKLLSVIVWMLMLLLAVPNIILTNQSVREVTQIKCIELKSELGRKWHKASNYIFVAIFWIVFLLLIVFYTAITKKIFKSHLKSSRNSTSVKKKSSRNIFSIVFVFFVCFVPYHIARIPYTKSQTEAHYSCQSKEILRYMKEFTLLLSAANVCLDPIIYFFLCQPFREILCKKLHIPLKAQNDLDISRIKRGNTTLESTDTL

[2] = target: T2, hP2Y14R (Homo sapiens, UniProt Q15391); experiment: competition for fluorescent binding of tracer 11
T2 sequence (Q15391 1-338): T1 sequence (Q15391 1-338)

[3] = target: T3, human P2Y14R (Homo sapiens, UniProt Q15391); experiment: inhibition of forskolin-stimulated cAMP accumulation in CHO-P2Y14R cells; assay type: cell-based; conditions: cAMP EC50 ratio, hP2Y14R-CHO cells
T3 sequence (Q15391 1-338): T1 sequence (Q15391 1-338)

[4] = target: T2, hP2Y14R; assay type: binding
[5] = system: P2Y6R; conditions: read-out: EC50 for activation of the P2Y6R; cited from earlier work

In the case of O=C(O)c1cc(-c2ccc(C3CCNCC3)cc2)c2ccc(-c3ccc(C(F)(F)F)cc3)cc2c1 [Compound 5, 4-(4-(piperidin-4-yl)-phenyl)-7-(4-(trifluoromethyl)-phenyl)-2-naphthoic acid], the “inhibition of fluorescent labeling by 11 (confocal microscopy)” value [1] is reported as “complete inhibition of binding” and the “inhibition of binding of 11 (FCM, concentration dependence)” value [2] is reported as “Nearly complete inhibition”.

With O=C(COc1ccc(C2=[N+]3C(=Cc4ccc(-c5cccs5)n4[B-]3(F)F)C=C2)cc1)NCCCCCNC(=O)[C@H]1O[C@H](OP(=O)(O)OP(=O)(O)OCC2OC(n3ccc(=O)[nH]c3=O)C(O)C2O)[C@H](O)[C@@H](O)[C@@H]1O (some centres unmarked) [Compound 11] the “potency enhancement of the fluorescent conjugate versus 47 nM parent” value [3] was 50 fold, the Bmax ([4]; FCM saturation binding, n=3) was 44,400 MESF and the “level of nonspecific binding” value ([4]; FCM, coincubation with up to 200 nM 5) was “very low”.

For CONc1ccn([C@@H]2O[C@H](COP(=O)(O)OP(=O)(O)OP(=O)(O)OC[C@H]3O[C@@H](n4ccc(=O)[nH]c4=O)[C@@H](O)[C@H]3O)[C@H](O)[C@@H]2O)c(=O)n1 [Compound 12, P^1-(uridine 5′-)-P^3-(N^4-methoxycytidine 5′-)triphosphate], the EC50 [5] is listed as 12 nM and the “Ki at P2Y14R relative to EC50 at P2Y6R” value ([2]; Ki (FCM, P2Y14R) higher than P2Y6R EC50) is listed as “about 500 fold”.

With S=C=Nc1cccc(NC(=S)NCCCCNC(=S)Nc2cccc(N=C=S)c2)c1 [Compound 13] the “inhibition of binding of 11 at hP2Y14R at fixed concentration” value ([2]; test ligand at 10 μM, tracer 11 50 nM, FCM) was “did not show any significant binding; also recorded: No inhibition at 10 μM”.
